Source: patent US5674979A, “Agent for inhibiting symmetrical proteins, in particular enzymes” (priority 1989, dated 1997)
Where two headings read alike, the source gives them in different places.

Key:
HIV-1 [1] = settings: H9 cells
Protocol: Compounds (a), (b), (c), (d) were tested in the molarity range from 0.1 μM to 1000 μM. Infectivity tests were carried out as follows: an HIV-1 suspension containing 10^2 infectious units was absorbed on to 5×10^6 H9 cells in a volume of 1 ml for 2 hours at 4° C. After this time, 9 ml of tissue culture medium with the required inhibitor concentration was added. The medium was exchanged with fresh medium plus inhibitor daily. Two control cultures were also prepared, one without inhibitor to determine the normal virus replication rate, the other containing inhibitor but no virus, to determine whether the substances were cytotoxic for H9 cells. […] The amount of virus antigen produced by the infected cells was measured daily using Elisa for eight days, indicating the amount of HIV-1 antigen in the tissue culture medium. After this, the cells were pelleted, washed in medium without inhibitor, and further incubated in inhibitor-less medium. The antigen production was measured on days 9 and 12 (ie 1 and […] after removal of the inhibitor). Virus production was also measured on days 7, 8, 9, and 12 by determining the amount of reverse transcriptase in the supernatant of the cell medium.

HIV-1 [2] = tested on: HIV-1
[3] = 0,1 μM, day 9 post infection, no inhibitor (after removal)
[4] = 0,1 μM, day 12 post infection, no inhibitor (after removal)
[5] = 1 μM, day 9 post infection, no inhibitor (after removal)
[6] = 1 μM, day 12 post infection, no inhibitor (after removal)
[7] = 10 μM, day 9 post infection, no inhibitor (after removal)
[8] = 10 μM, day 12 post infection, no inhibitor (after removal)
[9] = 100 μM, day 9 post infection, no inhibitor (after removal)
[10] = 100 μM, day 12 post infection, no inhibitor (after removal)
[11] = 1000 μM, day 9 post infection, no inhibitor (after removal)
[12] = 1000 μM, day 12 post infection, no inhibitor (after removal)

In the case of CC(C)C[C@H](NC(=O)OC(C)(C)C)C(=O)NCC(O)CC(=O)O (stereo partly drawn) [B, t-BOC-L-Leu-NH--CH2 --CHOH--CH2 --COOH], the “HIV-1 antigen production as measured in antigen capture ELISA” value (shortened to “HIV-1 antigen production as measured”) (HIV-1 [1]; 0,1 μM, day 1 post infection) is reported as 0,061 o. D, the “HIV-1 antigen production as measured” value (HIV-1 [1]; 0,1 μM, day 2 post infection) is reported as 0,063 o. D and the “HIV-1 antigen production as measured” value (HIV-1 [1]; 0,1 μM, day 3 post infection) is reported as 0,039 o. D. The “HIV-1 antigen production as measured” value (HIV-1 [1]; 0,1 μM, day 4 post infection) was 0,063 o. D, the “HIV-1 antigen production as measured” value (HIV-1 [1]; 0,1 μM, day 5 post infection) was 0,055 o. D and the “HIV-1 antigen production as measured” value (HIV-1 [1]; 0,1 μM, day 6 post infection) was 0,149 o. D. The “HIV-1 antigen production as measured” value (HIV-1 [1]; 0,1 μM, day 7 post infection) was 0,389 o. D, the “HIV-1 antigen production as measured” value (HIV-1 [1]; 0,1 μM, day 8 post infection) was 0,232 o. D and the “HIV-1 antigen production as measured” value (HIV-1 [1]; [3]) was 0,700 o. D. For the same molecule, the “HIV-1 antigen production as measured” value (HIV-1 [1]; [4]) was 1,047 o. D, the “HIV-1 antigen production as measured” value (HIV-1 [1]; 1 μM, day 1 post infection) was 0,063 o. D and the “HIV-1 antigen production as measured” value (HIV-1 [1]; 1 μM, day 2 post infection) was 0,060 o. D. The “HIV-1 antigen production as measured” value (HIV-1 [1]; 1 μM, day 3 post infection) was 0,061 o. D, the “HIV-1 antigen production as measured” value (HIV-1 [1]; 1 μM, day 4 post infection) was 0,050 o. D and the “HIV-1 antigen production as measured” value (HIV-1 [1]; 1 μM, day 5 post infection) was 0,052 o. D. The “HIV-1 antigen production as measured” value (HIV-1 [1]; 1 μM, day 6 post infection) was 0,105 o. D, the “HIV-1 antigen production as measured” value (HIV-1 [1]; 1 μM, day 7 post infection) was 0,186 o. D and the “HIV-1 antigen production as measured” value (HIV-1 [1]; 1 μM, day 8 post infection) was 0,237 o. D. For the same molecule, the “HIV-1 antigen production as measured” value (HIV-1 [1]; [5]) was 0,745 o. D, the “HIV-1 antigen production as measured” value (HIV-1 [1]; [6]) was 0,970 o. D and the “HIV-1 antigen production as measured” value (HIV-1 [1]; 10 μM, day 1 post infection) was 0,063 o. D. The “HIV-1 antigen production as measured” value (HIV-1 [1]; 10 μM, day 2 post infection) was 0,060 o. D, the “HIV-1 antigen production as measured” value (HIV-1 [1]; 10 μM, day 3 post infection) was 0,059 o. D and the “HIV-1 antigen production as measured” value (HIV-1 [1]; 10 μM, day 4 post infection) was 0,047 o. D. For the same molecule, the “HIV-1 antigen production as measured” value (HIV-1 [1]; 10 μM, day 5 post infection) was 0,055 o. D, the “HIV-1 antigen production as measured” value (HIV-1 [1]; 10 μM, day 6 post infection) was 0,087 o. D and the “HIV-1 antigen production as measured” value (HIV-1 [1]; 10 μM, day 7 post infection) was 0,303 o. D. For the same molecule, the “HIV-1 antigen production as measured” value (HIV-1 [1]; 10 μM, day 8 post infection) was 0,342 o. D, the “HIV-1 antigen production as measured” value (HIV-1 [1]; [7]) was 0,645 o. D and the “HIV-1 antigen production as measured” value (HIV-1 [1]; [8]) was 1,038 o. D. For the same molecule, the “HIV-1 antigen production as measured” value (HIV-1 [1]; 100 μM, day 1 post infection) was 0,068 o. D, the “HIV-1 antigen production as measured” value (HIV-1 [1]; 100 μM, day 2 post infection) was 0,070 o. D and the “HIV-1 antigen production as measured” value (HIV-1 [1]; 100 μM, day 3 post infection) was 0,063 o. D. The “HIV-1 antigen production as measured” value (HIV-1 [1]; 100 μM, day 4 post infection) was 0,052 o. D, the “HIV-1 antigen production as measured” value (HIV-1 [1]; 100 μM, day 5 post infection) was 0,052 o. D and the “HIV-1 antigen production as measured” value (HIV-1 [1]; 100 μM, day 6 post infection) was 0,099 o. D. For the same molecule, the “HIV-1 antigen production as measured” value (HIV-1 [1]; 100 μM, day 7 post infection) was 0,359 o. D, the “HIV-1 antigen production as measured” value (HIV-1 [1]; 100 μM, day 8 post infection) was 0,260 o. D and the “HIV-1 antigen production as measured” value (HIV-1 [1]; [9]) was 0,890 o. D. The “HIV-1 antigen production as measured” value (HIV-1 [1]; [10]) was 0,960 o. D, the “HIV-1 antigen production as measured” value (HIV-1 [1]; 1000 μM, day 1 post infection) was 0,076 o. D and the “HIV-1 antigen production as measured” value (HIV-1 [1]; 1000 μM, day 2 post infection) was 0,068 o. D. The “HIV-1 antigen production as measured” value (HIV-1 [1]; 1000 μM, day 3 post infection) was 0,050 o. D, the “HIV-1 antigen production as measured” value (HIV-1 [1]; 1000 μM, day 4 post infection) was 0,050 o. D and the “HIV-1 antigen production as measured” value (HIV-1 [1]; 1000 μM, day 5 post infection) was 0,063 o. D. For the same molecule, the “HIV-1 antigen production as measured” value (HIV-1 [1]; 1000 μM, day 6 post infection) was 0,075 o. D, the “HIV-1 antigen production as measured” value (HIV-1 [1]; 1000 μM, day 7 post infection) was 0,279 o. D and the “HIV-1 antigen production as measured” value (HIV-1 [1]; 1000 μM, day 8 post infection) was 0,577 o. D. The “HIV-1 antigen production as measured” value (HIV-1 [1]; [11]) was 0,811 o. D, the “HIV-1 antigen production as measured” value (HIV-1 [1]; [12]) was 1,050 o. D and the “Reverse Transkriptase Determination” value (HIV-1 [2]; 0,1 μM, day 7 post infection) was 2099 epm/ml. The “Reverse Transkriptase Determination” value (HIV-1 [2]; 0,1 μM, day 8 post infection) was 3091 epm/ml, the “Reverse Transkriptase Determination” value (HIV-1 [2]; [3]) was 6180 epm/ml and the “Reverse Transkriptase Determination” value (HIV-1 [2]; [4]) was 106830 epm/ml. For the same molecule, the “Reverse Transkriptase Determination” value (HIV-1 [2]; 1 μM, day 7 post infection) was 6105 epm/ml, the “Reverse Transkriptase Determination” value (HIV-1 [2]; 1 μM, day 8 post infection) was 3006 epm/ml and the “Reverse Transkriptase Determination” value (HIV-1 [2]; [5]) was 8474 epm/ml. The “Reverse Transkriptase Determination” value (HIV-1 [2]; [6]) was 92020 epm/ml, the “Reverse Transkriptase Determination” value (HIV-1 [2]; 10 μM, day 7 post infection) was 4614 epm/ml and the “Reverse Transkriptase Determination” value (HIV-1 [2]; 10 μM, day 8 post infection) was 4188 epm/ml. For the same molecule, the “Reverse Transkriptase Determination” value (HIV-1 [2]; [7]) was 7187 epm/ml, the “Reverse Transkriptase Determination” value (HIV-1 [2]; [8]) was 164920 epm/ml and the “Reverse Transkriptase Determination” value (HIV-1 [2]; 100 μM, day 7 post infection) was 4033 epm/ml. For the same molecule, the “Reverse Transkriptase Determination” value (HIV-1 [2]; 100 μM, day 8 post infection) was 4418 epm/ml, the “Reverse Transkriptase Determination” value (HIV-1 [2]; [9]) was 6575 epm/ml and the “Reverse Transkriptase Determination” value (HIV-1 [2]; [10]) was 125290 epm/ml. The “Reverse Transkriptase Determination” value (HIV-1 [2]; 1000 μM, day 7 post infection) was 3441 epm/ml, the “Reverse Transkriptase Determination” value (HIV-1 [2]; 1000 μM, day 8 post infection) was 3159 epm/ml and the “Reverse Transkriptase Determination” value (HIV-1 [2]; [11]) was 5503 epm/ml. For the same molecule, the “Reverse Transkriptase Determination” value (HIV-1 [2]; [12]) was 149020 epm/ml.
